The assay has as its system BDF1 mice, colon carcinoma 38 sc, T/C %. In words: NCI In Vivo Anticancer Drug Screen. Data for tumor model Colon Carcinoma 38 (subcutaneous) in B6D2F1 (BDF1) mice. The essentials: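 Mice with transplanted tumors are treated with compound or vehicle. Survival or tumor size is then measured in both groups. The ratio of treated to control gives the reported figure.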
Setting [1] is: endpoint: median tumor weight (est.), dose: 3.12 mg/kg/injection, schedule: Q07DX002 (ip), vehicle: saline, higher = larger tumour.
[2] abbreviates: endpoint: median tumor weight (est.), dose: 6.25 mg/kg/injection, schedule: Q07DX002 (ip), vehicle: saline, higher = larger tumour.
Where [3] appears, read: endpoint: median tumor weight (est.), dose: 25.0 mg/kg/injection, schedule: Q07DX002 (ip), vehicle: saline, higher = larger tumour.

Several values for one entry are separate records, joined by “and”; a condition that tells them apart may be missing. Equal values may be shown once. Results filed as inconclusive are left out.

As to `OCCN1CCN(CCCN2c3ccccc3Sc3ccc(C(F)(F)F)cc32)CC1`, the T/C is 115 % of control under setting [1]; 91 % of control under setting [2]; 61 % of control (endpoint: median tumor weight (est.), dose: 12.5 mg/kg/injection, schedule: Q07DX002 (ip), vehicle: saline, higher = larger tumour); 67 % of control under setting [3]; 56 % of control (endpoint: median tumor weight (est.), dose: 50.0 mg/kg/injection, schedule: Q07DX002 (ip), vehicle: saline, higher = larger tumour).

As for `C=C(Cl)C(=NC(C)(C)C)Nc1ccccc1C`, the T/C is 68 % of control (endpoint: median tumor weight (est.), dose: 6.25 mg/kg/injection, schedule: Q07DX002 (ip), vehicle: Klucel (hydroxypropylcellulose) (HPC), higher = larger tumour); 96 % of control (endpoint: median tumor weight (est.), dose: 12.5 mg/kg/injection, schedule: Q07DX002 (ip), vehicle: Klucel (hydroxypropylcellulose) (HPC), higher = larger tumour); 76 % of control (endpoint: median tumor weight (est.), dose: 25.0 mg/kg/injection, schedule: Q07DX002 (ip), vehicle: Klucel (hydroxypropylcellulose) (HPC), higher = larger tumour); 84 % of control (endpoint: median tumor weight (est.), dose: 50.0 mg/kg/injection, schedule: Q07DX002 (ip), vehicle: Klucel (hydroxypropylcellulose) (HPC), higher = larger tumour); 113 % of control (endpoint: median tumor weight (est.), dose: 100.0 mg/kg/injection, schedule: Q07DX002 (ip), vehicle: Klucel (hydroxypropylcellulose) (HPC), higher = larger tumour).

On to `C=C(C)[C@H]1Cc2c(ccc3c2O[C@@H]2COc4cc(OC)c(OC)cc4[C@@H]2C3=O)O1`, for which the T/C is 230 % of control (endpoint: median tumor weight (est.), dose: 2.0 mg/kg/injection, schedule: Q07DX003 (ip), vehicle: saline with Tween-80, higher = larger tumour) and 98 % of control (endpoint: median tumor weight (est.), dose: 8.0 mg/kg/injection, schedule: Q07DX003 (ip), vehicle: saline with Tween-80, higher = larger tumour).

Take `Cc1c2cc[n+](CCN3CCCCC3)cc2c(C)c2c1[nH]c1ccc(O)cc12`: the T/C under setting [1] was 36 % of control; the T/C (endpoint: median tumor weight (est.), dose: 3.12 mg/kg/injection, schedule: Q07DX002 (ip), vehicle: suspension in saline, higher = larger tumour) was 100 % of control; the T/C under setting [2] is 53 % of control and 61 % of control; the T/C (endpoint: median tumor weight (est.), dose: 6.25 mg/kg/injection, schedule: Q07DX002 (ip), vehicle: suspension in saline, higher = larger tumour) was 104 % of control; the T/C (endpoint: median tumor weight (est.), dose: 12.5 mg/kg/injection, schedule: Q07DX002 (ip), vehicle: suspension in saline, higher = larger tumour) was 86 % of control; the T/C under setting [3] is 39 % of control and 64 % of control. Moreover, the T/C is, setting by setting: (endpoint: median tumor weight (est.), dose: 25.0 mg/kg/injection, schedule: Q07DX002 (ip), vehicle: suspension in saline, higher = larger tumour) 69 % of control; (endpoint: median tumor weight (est.), dose: 50.0 mg/kg/injection, schedule: Q07DX002 (ip), vehicle: suspension in saline, higher = larger tumour) 39 % of control; (endpoint: median tumor weight (est.), dose: 100.0 mg/kg/injection, schedule: Q07DX002 (ip), vehicle: saline, higher = larger tumour) 36 % of control and 47 % of control.

For `CC(=O)Oc1ccccc1C(=O)O`, the T/C (endpoint: median tumor weight (est.), dose: 32.0 mg/kg/injection, schedule: Q07DX002 (ip), vehicle: saline with Tween-80, higher = larger tumour) is 102 % of control; the T/C (endpoint: median tumor weight (est.), dose: 64.0 mg/kg/injection, schedule: Q07DX002 (ip), vehicle: saline with Tween-80, higher = larger tumour) is 53 % of control; the T/C (endpoint: median tumor weight (est.), dose: 72.0 mg/kg/injection, schedule: Q07DX002 (ip), vehicle: saline with Tween-80, higher = larger tumour) is 122 % of control; the T/C (endpoint: median tumor weight (est.), dose: 128.0 mg/kg/injection, schedule: Q07DX002 (ip), vehicle: saline with Tween-80, higher = larger tumour) was 76 % of control; the T/C (endpoint: median tumor weight (est.), dose: 144.0 mg/kg/injection, schedule: Q07DX002 (ip), vehicle: saline with Tween-80, higher = larger tumour) is 118 % of control; the T/C (endpoint: median tumor weight (est.), dose: 256.0 mg/kg/injection, schedule: Q07DX002 (ip), vehicle: saline with Tween-80, higher = larger tumour) is 97 % of control. Also, the T/C runs as follows: (endpoint: median tumor weight (est.), dose: 518.0 mg/kg/injection, schedule: Q07DX002 (ip), vehicle: saline with Tween-80, higher = larger tumour) 90 % of control; (endpoint: median tumor weight (est.), dose: 1152.0 mg/kg/injection, schedule: Q07DX002 (ip), vehicle: saline with Tween-80, higher = larger tumour) 118 % of control.

For `C[C@@]12C(=O)OC(=O)[C@]1(C)[C@H]1CC[C@@H]2O1`, the T/C is, setting by setting: (endpoint: median tumor weight (est.), dose: 0.12 mg/kg/injection, schedule: Q07DX002 (ip), vehicle: Klucel (hydroxypropylcellulose) (HPC), higher = larger tumour) 88 % of control; (endpoint: median tumor weight (est.), dose: 0.25 mg/kg/injection, schedule: Q07DX002 (ip), vehicle: Klucel (hydroxypropylcellulose) (HPC), higher = larger tumour) 65 % of control; (endpoint: median tumor weight (est.), dose: 0.5 mg/kg/injection, schedule: Q07DX002 (ip), vehicle: Klucel (hydroxypropylcellulose) (HPC), higher = larger tumour) 69 % of control; (endpoint: median tumor weight (est.), dose: 1.0 mg/kg/injection, schedule: Q07DX002 (ip), vehicle: Klucel (hydroxypropylcellulose) (HPC), higher = larger tumour) 76 % of control; (endpoint: median tumor weight (est.), dose: 2.0 mg/kg/injection, schedule: Q07DX002 (ip), vehicle: Klucel (hydroxypropylcellulose) (HPC), higher = larger tumour) 86 % of control.

With `O=C1c2ccccc2C(=O)c2c(NCCNCCO)ccc(NCCNCCO)c21`, the T/C (endpoint: median survival time, dose: 20.0 mg/kg/injection, schedule: Q04DX004 (ip), vehicle: saline, higher = longer survival) is 110 % of control; the T/C (endpoint: median survival time, dose: 40.0 mg/kg/injection, schedule: Q04DX004 (ip), vehicle: saline, higher = longer survival) is 110 % of control; the T/C (endpoint: median survival time, dose: 80.0 mg/kg/injection, schedule: Q04DX004 (ip), vehicle: saline, higher = longer survival) was 120 % of control; the T/C (endpoint: median tumor weight (est.), dose: 1.0 mg/kg/injection, schedule: Q07DX002 (ip), vehicle: saline, higher = larger tumour) is 89 % of control; the T/C (endpoint: median tumor weight (est.), dose: 1.5 mg/kg/injection, schedule: Q07DX003 (ip), vehicle: saline with Tween-80, higher = larger tumour) was 47 % of control and 64 % of control; the T/C (endpoint: median tumor weight (est.), dose: 2.0 mg/kg/injection, schedule: Q07DX002 (ip), vehicle: saline, higher = larger tumour) is 77 % of control. The T/C (endpoint: median tumor weight (est.), dose: 3.0 mg/kg/injection, schedule: Q07DX003 (ip), vehicle: saline with Tween-80, higher = larger tumour) was 81 % of control; the T/C (endpoint: median tumor weight (est.), dose: 3.0 mg/kg/injection, schedule: Q07DX003 (ip), vehicle: saline, higher = larger tumour) was 59 % of control and 72 % of control; the T/C (endpoint: median tumor weight (est.), dose: 4.0 mg/kg/injection, schedule: Q07DX002 (ip), vehicle: acid diluted with saline, higher = larger tumour) is 82 % of control; the T/C (endpoint: median tumor weight (est.), dose: 4.0 mg/kg/injection, schedule: Q07DX002 (ip), vehicle: saline, higher = larger tumour) was 66 % of control; the T/C (endpoint: median tumor weight (est.), dose: 6.0 mg/kg/injection, schedule: Q07DX003 (ip), vehicle: saline with Tween-80, higher = larger tumour) was 11 % of control; the T/C (endpoint: median tumor weight (est.), dose: 8.0 mg/kg/injection, schedule: Q07DX002 (ip), vehicle: Klucel (hydroxypropylcellulose) (HPC), higher = larger tumour) was 107 % of control. In addition, the T/C reads like this: (endpoint: median tumor weight (est.), dose: 8.0 mg/kg/injection, schedule: Q07DX002 (ip), vehicle: acid diluted with saline, higher = larger tumour) 70 % of control; (endpoint: median tumor weight (est.), dose: 8.0 mg/kg/injection, schedule: Q07DX002 (ip), vehicle: saline, higher = larger tumour) 82 % of control; (endpoint: median tumor weight (est.), dose: 8.0 mg/kg/injection, schedule: Q07DX003 (ip), vehicle: Klucel (hydroxypropylcellulose) (HPC), higher = larger tumour) 65 % of control; (endpoint: median tumor weight (est.), dose: 8.0 mg/kg/injection, schedule: Q07DX003 (ip), vehicle: water, higher = larger tumour) 56 % of control; (endpoint: median tumor weight (est.), dose: 16.0 mg/kg/injection, schedule: Q07DX002 (ip), vehicle: Klucel (hydroxypropylcellulose) (HPC), higher = larger tumour) 120 % of control; (endpoint: median tumor weight (est.), dose: 16.0 mg/kg/injection, schedule: Q07DX002 (ip), vehicle: acid diluted with saline, higher = larger tumour) 39 % of control. The T/C is, setting by setting: (endpoint: median tumor weight (est.), dose: 16.0 mg/kg/injection, schedule: Q07DX002 (ip), vehicle: saline, higher = larger tumour) 48 % of control; (endpoint: median tumor weight (est.), dose: 16.0 mg/kg/injection, schedule: Q07DX003 (ip), vehicle: Klucel (hydroxypropylcellulose) (HPC), higher = larger tumour) 54 % of control; (endpoint: median tumor weight (est.), dose: 16.0 mg/kg/injection, schedule: Q07DX003 (ip), vehicle: water, higher = larger tumour) 47 % of control; (endpoint: median tumor weight (est.), dose: 25.0 mg/kg/injection, schedule: Q07DX003 (ip), vehicle: Klucel (hydroxypropylcellulose) (HPC), higher = larger tumour) 46 % of control; (endpoint: median tumor weight (est.), dose: 25.0 mg/kg/injection, schedule: Q07DX003 (iv), vehicle: Klucel (hydroxypropylcellulose) (HPC), higher = larger tumour) 4 % of control and 18 % of control and 25 % of control; (endpoint: median tumor weight (est.), dose: 32.0 mg/kg/injection, schedule: Q07DX002 (ip), vehicle: Klucel (hydroxypropylcellulose) (HPC), higher = larger tumour) 65 % of control. For the same compound, the T/C is, setting by setting: (endpoint: median tumor weight (est.), dose: 32.0 mg/kg/injection, schedule: Q07DX002 (ip), vehicle: acid diluted with saline, higher = larger tumour) 4 % of control; (endpoint: median tumor weight (est.), dose: 32.0 mg/kg/injection, schedule: Q07DX002 (ip), vehicle: saline, higher = larger tumour) 10 % of control; (endpoint: median tumor weight (est.), dose: 32.0 mg/kg/injection, schedule: Q07DX003 (ip), vehicle: Klucel (hydroxypropylcellulose) (HPC), higher = larger tumour) 52 % of control; (endpoint: median tumor weight (est.), dose: 32.0 mg/kg/injection, schedule: Q07DX003 (ip), vehicle: water, higher = larger tumour) 28 % of control; (endpoint: median tumor weight (est.), dose: 50.0 mg/kg/injection, schedule: Q07DX003 (ip), vehicle: Klucel (hydroxypropylcellulose) (HPC), higher = larger tumour) 45 % of control; (endpoint: median tumor weight (est.), dose: 50.0 mg/kg/injection, schedule: Q07DX003 (iv), vehicle: Klucel (hydroxypropylcellulose) (HPC), higher = larger tumour) 11 % of control and 17 % of control. For the same compound, the T/C (endpoint: median tumor weight (est.), dose: 64.0 mg/kg/injection, schedule: Q07DX002 (ip), vehicle: Klucel (hydroxypropylcellulose) (HPC), higher = larger tumour) was 26 % of control.

With `COC1CC(C)C(OC)c2cc(O)cc(c2O)NC(=O)/C(C)=C/C=C\C(C)C(OC(N)=O)/C(C)=C\C(C)C1OC` (stereo not drawn), the T/C by setting is: (endpoint: median tumor weight (est.), dose: 3.13 mg/kg/injection, schedule: Q07DX002 (ip), vehicle: saline + alcohol, higher = larger tumour) 114 % of control; (endpoint: median tumor weight (est.), dose: 12.5 mg/kg/injection, schedule: Q07DX002 (ip), vehicle: saline + alcohol, higher = larger tumour) 69 % of control; (endpoint: median tumor weight (est.), dose: 25.0 mg/kg/injection, schedule: Q07DX002 (ip), vehicle: saline + alcohol, higher = larger tumour) 94 % of control.

Source of the values: PubChem BioAssay AID212 (DTP/NCI, 2004).
